Experimental data taken from US9296716B2, “Androgen receptor ligands” (THE PROVOST, FELLOWS, FOUNDATION SCHOLARS, & THE OTHER …, priority 2011, dated 2016).

Target: T1, AR-LBD wt (Homo sapiens, UniProt P10275)
T1 sequence (P10275 669-900 limits assumed): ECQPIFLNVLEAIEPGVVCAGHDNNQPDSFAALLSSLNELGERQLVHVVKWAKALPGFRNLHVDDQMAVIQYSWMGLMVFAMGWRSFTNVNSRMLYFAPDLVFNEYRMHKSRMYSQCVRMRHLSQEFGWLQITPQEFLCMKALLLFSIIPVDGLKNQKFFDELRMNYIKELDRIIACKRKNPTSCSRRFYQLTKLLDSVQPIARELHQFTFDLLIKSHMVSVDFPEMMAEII
Assay: Lanthascreen TR-FRET AR coactivator (D11-FxxLF) assay, AR-LBD wt
Assay type: biochemical
Conditions: for IC50: TR-FRET, D11-FxxLF peptide, DHT = EC80, read-out: Activity (AR wt TR-FRET)

IC50 [µM] | type of AR antagonism (full / partial) (TR-FRET in agonist and antagonist mode) | Compound
> 100 | – | CCOc1cc(/C=N/NC(=O)c2cc3ccccc3cc2O)ccc1O [MDG481]
> 100 | – | O=C(N/N=C/c1cccnc1)c1cc2ccccc2cc1O [MDG482]
> 100 | – | COc1ccc(C(=O)NNC(=O)c2cc3ccccc3cc2O)cc1 [MDG484]
> 100 | – | O=C(N/N=C/c1cccc(O)c1O)c1ccccc1 [MDG485]
> 100 | – | O=C(N/N=C/c1cccc(O)c1O)c1ccccc1O [MDG486]
> 100 | – | O=C(N/N=C/c1ccc2ccccc2c1)c1ccccc1O [MDG487]
> 100 | – | CCOc1ccc(/C=N/NC(=O)c2cc3ccccc3cc2O)cc1O [MDG488]
> 100 | – | COc1cc(/C=N/NC(=O)c2cc3ccccc3cc2O)cc(OC)c1O [MDG489, 3-hydroxy-N′-(4-hydroxy-3,5-dimethoxybenzylidene)-2-naphthohydrazide]
> 100 | – | O=C(N/N=C/c1ccccc1C(=O)O)c1cc2ccccc2cc1O [MDG490]
> 100 | – | Cc1ccccc1/C=N/NC(=O)c1cc2ccccc2cc1O [MDG492]
> 100 | – | CCN(CC)c1ccc(/C=N/NC(=O)c2cc3ccccc3cc2O)cc1 [MDG493]
> 100 | – | COc1ccc(/C=N/NC(=O)c2cc3ccccc3cc2O)cc1O [MDG494]
> 100 | – | O=C(N/N=C/c1cccc(OCc2ccccc2)c1)c1cc2ccccc2cc1O [MDG495]
> 100 | – | O=C(N/N=C/c1cccc(Cl)c1Cl)c1cc2ccccc2cc1O [MDG496]
> 100 | – | Cc1cccc(/C=N/NC(=O)c2cc3ccccc3cc2O)c1 [MDG497]
> 100 | – | O=C(N/N=C/c1ccc(OCc2ccccc2)cc1)c1cc2c(ccc3ccccc32)o1 [MDG499]
> 100 | – | O=C(N/N=C/c1ccc(O)c(Br)c1)c1cc2c(ccc3ccccc32)o1 [MDG500]
> 100 | – | COc1cc(Br)cc(/C=N/NC(=O)c2cc3c(ccc4ccccc43)o2)c1O [MDG501]
> 100 | – | CC(C)Oc1ccc(/C=N/NC(=O)c2cc3c(ccc4ccccc43)o2)cc1 [MDG502]

IC50 [µM] | type of AR antagonism (full / partial) (TR-FRET in agonist and antagonist mode) | Compound
> 100 | – | COc1ccc(/C=N/NC(=O)c2cc3c(ccc4ccccc43)o2)c2ccccc12 [MDG503]
> 100 | – | COc1ccc(/C=N/NC(=O)c2cc3c(ccc4ccccc43)o2)cc1C [MDG504]
> 100 | – | COc1cccc(/C=N/NC(=O)c2cc3c(ccc4ccccc43)o2)c1 [MDG505, N′-(3-methoxybenzylidene)naphtho[2,1-b]furan-2-carbohydrazide]
> 100 | – | COc1ccc(/C=N/NC(=O)c2cc3c(ccc4ccccc43)o2)cc1O [MDG507]
> 100 | – | CCCOc1ccc(/C=N/NC(=O)c2cc3c(ccc4ccccc43)o2)cc1OC [MDG509]
> 100 | – | CCCOc1ccc(/C=N/NC(=O)c2cc3c(ccc4ccccc43)o2)cc1OCC [MDG510]
> 100 | – | COc1cc(/C=N/NC(=O)c2cc3c(ccc4ccccc43)o2)cc(OC)c1OC [MDG511]
> 100 | – | CCOc1ccc(/C=N/NC(=O)c2cc3c(ccc4ccccc43)o2)cc1 [MDG512]
> 100 | – | COc1c(Cl)cc(/C=N/NC(=O)c2cc3c(ccc4ccccc43)o2)cc1Cl [MDG513]
> 100 | – | CCOc1c(Cl)cc(/C=N/NC(=O)c2cc3c(ccc4ccccc43)o2)cc1Cl [MDG514]
> 100 | – | COc1cc(/C=N/NC(=O)c2cc3c(ccc4ccccc43)o2)cc(Cl)c1OCc1ccccc1 [MDG515]
> 100 | – | COc1cc(/C=N/NC(=O)c2cc3c(ccc4ccccc43)o2)c(Br)cc1O [MDG516]
> 100 | – | CCOc1cc(/C=N/NC(=O)c2cc3ccccc3o2)cc(I)c1OC [MDG598]
> 100 | – | COc1ccccc1/C=N/NC(=O)c1ccc2ccccc2c1O [MDG599]
> 100 | – | COc1cc2ccccc2cc1C(=O)N/N=C/c1ccccc1O [MDG600]
> 100 | – | O=C(C/C=N/C=N/NC(=O)c1ccccc1O)c1ccccc1O [MDG601]
> 100 | – | O=C(N/N=C/c1cc2ccccc2cc1O)c1ccc(C(=O)N/N=C/c2cc3ccccc3cc2O)cc1 [MDG602]
11.3 ± 2.6 | full AR antagonists | C/C(=N\NC(=O)c1cc2ccccc2cc1O)C1C(=O)c2ccccc2C1=O [MDG603]
> 100 | – | C/C(=N\NC(=O)c1cc2ccccc2cc1O)c1ccco1 [MDG604]

IC50 [µM] | type of AR antagonism (full / partial) (TR-FRET in agonist and antagonist mode) | Compound
> 100 | – | O=C(N/N=C/c1cccc2ccccc12)c1cc2ccccc2cc1O [MDG607]
> 100 | – | Cc1ccc(O)c(/C=N/NC(=O)c2cc3ccccc3cc2O)c1 [MDG609]
> 100 | – | CC(C)(C)c1ccc(O)c(/C=N/NC(=O)c2cc3ccccc3cc2O)c1 [MDG610]
> 100 | – | O=C(N/N=C/c1cc(I)ccc1O)c1cc2ccccc2cc1O [MDG613]
> 100 | – | COc1cc(Cl)cc(/C=N/NC(=O)c2cc3ccccc3cc2O)c1O [MDG615]
> 200 | – | O=C(N/N=C/c1cccc(Cl)c1O)c1cc2ccccc2cc1O [MDG618, 3-hydroxy-N′-(2-hydroxy-3-chlorobenzylidene)-2-naphthohydrazide]
> 100 | – | COc1ccccc1/C=N/NC(=O)c1cc2ccccc2cc1O [MDG619]
> 100 | – | COc1ccc(Br)cc1/C=N/NC(=O)c1cc2ccccc2cc1O [MDG620]
> 100 | – | C/C(=N\NC(=O)c1cc2ccccc2cc1O)c1cc(Cl)ccc1O [MDG621, 3-hydroxy-N′-[(1E)-1-(2-hydroxy-5-chlorophenyl)ethylidene]-2-naphthohydrazide]
> 100 | – | O=C(N/N=C/c1cc(Cl)ccc1O)c1ccc2ccccc2c1 [MDG622]
> 100 | – | O=C(N/N=C/c1ccc(Cl)c([N+](=O)[O-])c1)c1cc2ccccc2cc1O [MDG623]
> 100 | – | O=C(N/N=C/c1ccc2ccccc2c1O)c1cc2ccccc2cc1O [MDG624]
> 100 | – | O=C(N/N=C/c1ccc2ccccc2c1)c1cc2ccccc2cc1O [MDG625]
> 100 | – | C/C(=N\NC(=O)c1cc2ccccc2cc1O)c1ccc2ccccc2c1 [MDG626]
> 100 | – | O=C(N/N=C(\c1ccccc1)c1ccc2ccccc2c1)c1cc2ccccc2cc1O [MDG627]
> 100 | – | O=C(N/N=C/c1ccccc1)c1cc2ccccc2cc1O [MDG628, 3-hydroxy-N′-benzylidene-2-naphthohydrazide]
> 100 | – | O=C(N/N=C/c1ccccc1[N+](=O)[O-])c1cc2ccccc2cc1O [MDG631]
> 100 | – | Nc1ccccc1/C=N/NC(=O)c1cc2ccccc2cc1O [MDG632]
> 100 | – | O=C(N/N=C/c1cc(Cl)ccc1[N+](=O)[O-])c1cc2ccccc2cc1O [MDG633]
